Paper PMC7682835, “A novel G protein-coupled receptor for starfish gonadotropic hormone, relaxin-like gonad-stimulating peptide” (PLoS ONE, 2020)

Legend:
[1] = system: starfish; conditions: injection of 1-MeAde compared with RGP; cited from earlier work
Text: (§1) Although RGP is the primary mediator of oocyte maturation and ovulation, the effect of RGP is indirect. RGP secreted by radial nerve cords induces ovarian follicle cells to produce 1-methyladenine (1-MeAde) as a maturation-inducing hor ...

[2] = system: PpeRGPR; assay: Intracellular calcium mobilization (Fluo-8) in Sf9 cells transfected with Gαq16-fused PpeRGPR; format: cell-based, Patiria pectinifera; conditions: for Effect on calcium signaling (result in words): Fluo-8, 490/514 nm
Description: Functional characterization of PpeRGPR was performed using Sf9 cells and baculovirus-based expression methods, as previously reported. The open reading frame (ORF) of human Gαq16 protein (OriGene, Rockville, MD, USA), which couples with GPCRs and triggers intracellular calcium mobilization upon binding of a specific ligand [33] was subcloned into the XbaI site of the pFastbacI plasmid (Invitrogen, Waltham, MA, USA). PpeRGPR was then cloned into the NotI/XbaI site of the Gαq16-ligated pFastbacI plasmids. Transformation of competent cells with the PpeRGPR-Gαq16-pFastbacI plasmid and the resulting bacmid isolation was performed according to the manufacturer’s instructions for the Bac-to-Bac system (Thermo Fisher Scientific, Waltham, MA, USA).
Sf9 cells (Thermo Fisher Scientific) were grown in Sf900 II (Thermo Fisher Scientific) containing 10% FBS (Sigma-Aldrich) at 28°C. PpeRGPR-Gαq16-recombinant baculoviruses were prepared from Sf9 cells transfected with the above bacmids using Cellfectin II (Thermo Fisher Scientific), titrated, isolated, and transiently transfected into Sf9 cells, as previously described. Sf9 cells were plated at 1.2×10^5 cells/well (on a 96-well plate) or 2.4×10^5 cells (on a glass bottom dish) prior to transfection. Forty-eight hours after transfection, Sf9 cells were loaded for 30 min with 2.5 μM of Fluo-8 AM (AAT Bioquest, Sunnyvale, CA, USA) diluted in loading buffer [HBSS supplemented with 1.25 mM probenecid and 0.04% (wt/vol) pluronic F-127] [32]. Cell membrane expression of PpeRGPR-fused human Gαq16 was confirmed by immunostaining using the anti-Gαq16 antibody (OriGene, TA318890) in comparison with non-transfected Sf9 cells (wild type). Dose-dependent responses to PpeRGP or AamRGP were measured using a FlexStation II-automated apparatus (Molecular Devices, San Jose, CA, USA) at the excitation/emission wavelengths of 490/514 nm. Calcium accumulation data were analyzed using Prism v6 (GraphPad Software, San Diego, CA, USA) to fit to a sigmoidal concentration-response curve, as previously described. The dose-response curve was statistically evaluated by analysis of variance. Significant activation of PpeRPGR by PpeRGP compared with AamRGP at each concentration was also examined by Student t test.
Fig 2 Intracellular calcium mobilization in Sf9 cells. (A, B) Sf9 cells were transfected with Gαq16- fused PpeRGPR-recombinant baculovirus (A) and non-transfected Sf9 cells were used as wild type controls (B). Expression of PpeRGPR in Sf9 cells was examined by immunostaining using an anti-Gαq16 antibody. Immunoreactivity was observed using a fluorescence microscope after incubation with an Alexa Fluor 488-conjugated secondary antibody. […] Scale bars represent 50 μm. […] Each dose-response curve was statistically evaluated by analysis of variance. […]

[3] = system: PpeRGPR in P. pectinifera ovarian follicle cells; assay: Competitive binding assay, 125I-PpeRGP versus unlabeled RGP, follicle cell homogenates; set-up: species or system Patiria pectinifera; conditions: 2 h at 20°C, four separate assays; for Effect of unlabeled peptide on 125I-PpeRGP binding (result in words): follicle cell homogenates (25 μg of protein), 125I-PpeRGP about 100,000 cpm, final concentration 1.1 pM, total volume 0.5 ml, four animals
Description: Follicle cells were homogenized using a Teflon homogenizer in 25 mM Tris-HCl (pH 7.4) containing 10 mM MgCl2. Protein concentrations were measured using a Bio-Rad protein assay kit (Bio-Rad Laboratories, Hercules, CA, USA).
The radioiodination of PpeRGP with Na^125I (carrier free; GE Healthcare, Buckinghamshire, UK) was carried out at room temperature in accordance with the modified lactoperoxidase method, as described previously. The specific activity of radioiodinated PpeRGP (^125I-PpeRGP) was estimated to be 150 μCi/μg.
The specificity of RGP binding was examined using whole homogenates of follicle cells. Preparations were adjusted to yield a protein concentration of 10 mg/ml with the homogenizing medium plus 0.1% (wt/vol) BSA, and stored at -80°C until use. The binding assay was performed using competition experiments between labeled PpeRGP and unlabeled PpeRGP or AamRGP, as described previously. Data were obtained from four separate assays using follicle cells from ovaries of four different animals.
Fig 3 Competitive inhibition curves of ^125I-PpeRGP binding to Patiria pectinifera ovarian follicle cells in the presence of unlabeled PpeRGP or AamRGP. P. pectinifera ovarian follicle cell homogenates (25 μg of protein) were incubated for 2 h at 20°C in assay buffer containing ^125I-PpeRGP (about 100,000 cpm; 2.087 pg/[…]; total volume 0.5 ml, final concentration 1.1 pM) in the presence of serially diluted unlabeled PpeRGP (●) or AamRGP (○). Specific binding was obtained by subtracting nonspecific binding from total binding. Data were obtained from four separate assays using follicle cells from ovaries of four different animals.

[4] = system: Patiria pectinifera ovarian follicle cells; assay: 1-MeAde production by follicle cells; format: cell-based; conditions: follicle cells (ten million in 1 ml ASW), 2 h at 20°C; 1-MeAde released into medium by biological assay; three independent samples
Description: (§2) Ten million follicle cells were incubated for 2 h at 20°C in 1 ml of ASW in the presence of PpeRGP or AamRGP, with occasional shaking. The cell suspension was then centrifuged at 1,000 g for 1 min and quickly frozen in liquid nitrogen. Supernatants were analyzed for the amount of 1-MeAde released from follicle cells. The concentration of 1-MeAde was determined by a method previously described, using authentic 1-MeAde as the standard reference. The frozen follicle cells were analyzed for the amount of intracellular cAMP using a BIOTRAK cAMP EIA system (GE Healthcare). The mean was determined from three separate assays using three different animals and standard error of the mean (SEM).
(§3) Fig 4 Effect of RGP on 1-MeAde and cAMP production in Patiria pectinifera ovarian follicle cells. (A) Amino acid alignments of A- and B-chains in P. pectinifera (PpeRGP) and Asterias amurensis (AamRGP). To illustrate the conserved features, the amino acid types are color coded according to their properties, with basic residues in blue (Arg, Lys and His), acidic residues in red (Glu and Asp), hydrophobic residues in green (Ala, Val, Ile, Phe, Trp, Tyr, Pro and Met), hydrophilic in black (Ser, Thr, Asn and Gln) and glycine in light blue. The cysteine residues are highlighted in yellow and disulfide bonds are shown with solid dark red lines. […] Intracellular cAMP content was determined by EIA. […]

[5] = system: Patiria pectinifera ovarian follicle cells; assay: Intracellular cAMP production in follicle cells; format: cell-based; conditions: follicle cells (ten million in 1 ml ASW), 2 h at 20°C; intracellular cAMP by EIA; three independent samples
Description: as §2, §3

[6] = system: Patiria pectinifera ovarian follicle cells; conditions: isolated follicle cells cultured with PpeRGP, cited from earlier work
Text: However, the RGP receptor (RGPR) remains to be identified in s ...

[7] = system: P. pectinifera ovaries; conditions: approximately; in vitro spawning; read-out: Median effective concentration of in vitro spawning; cited from earlier work
Text: Since cDNA encoding the PpeRGPR was cloned from P. pectinifera follicle cells (Fig 1), PpeRGPR should be expressed on follicle cell surface. […] In contrast to PpeRGP, AamRGP had no effects on binding to P. pectinifera follicle cells (Fig 3), as well as 1-MeAde and cAMP production (Fig 4B) or calcium signals in PpeRGPR-expressing Sf9 cells (Fig 2C). […] Based on 3D structural models, P^A17 of PpeRGP and R^A18 of AamRGP are located near their respective B-cha ...

[8] = system: males and females of P. pectinifera; conditions: injection of synthetic PpeRGP into males and females with fully-grown testes and ovaries; cited from earlier work
Text: as §1

[9] = system: ovarian fragments of P. pectinifera; conditions: synthetic PpeRGP, within 30 min of incubation; cited from earlier work
Text: as §1

[10] = system: membrane preparation of ovarian follicle cells of P. pectinifera; conditions: cited from earlier work
[11] = Sf9 cells with Gαq16-fused PpeRGPR, three to seven independent samples

Molecule	Interval preceding the discharge of gametes after injection (result in words) [1]	Effect on calcium signaling (result in words) [2, 11]	Effect of unlabeled peptide on 125I-PpeRGP binding (result in words) [3]	Effect on 1-MeAde production (result in words) [4]	Effect on cAMP production (result in words) [5]	EC50 ([2]; Sf9 cells transfected with Gαq16-fused PpeRGPR baculovirus, 48 h, Fluo-8 AM 2.5 μM, FlexStation II, 490/514 nm, sigmoidal fit, three to seven independent samples, read-out: EC50, calcium signaling) [nM]	Concentration above which calcium signaling is significantly increased ([2]; Sf9 cells with Gαq16-fused PpeRGPR, Fluo-8)	Kd ([3]; Scatchard plot analysis, follicle cell homogenates, 125I-PpeRGP, read-out: Dissociation constant (Kd)) [nM]	1-MeAde production in isolated follicle cells (result in words) ([6]; coinciding with cAMP increase)	cAMP production in isolated follicle cells (result in words) [6]	EC50 [7] [nM]	Spawning behavior and spawning after injection (result in words) [8]	Induction of oocyte maturation and ovulation (result in words) [9]	Binding to follicle cell membrane preparation (result in words) [10]
Cn1cnc2ncnc-2c1N [1-MeAde, 1-methyladenine]	almost equal to those found after injection of RGP	–	–	–	–	–	–	–	–	–	–	–	–	–
relaxin-like gonad-stimulating peptide of Asterias amurensis [AamRGP, reference compound]	–	no effect on calcium signaling	no effect on ^125I-PpeRGP binding	no effects	no effects	–	–	–	–	–	–	–	–	–
relaxin-like gonad-stimulating peptide of Patiria pectinifera [PpeRGP]	–	significantly increased calcium signaling at concentrations above 1 nM in a dose-dependent manner	decreased in a dose-dependent manner	–	–	11.1	above 1 nM	~0.67	increase	dose-related increase	1 to 2	spawning behavior and subsequent spawning were observed	induced oocyte maturation and ovulation	binds specifically
